The values that follow come from patent US20090028943A1, “PHARMACEUTICAL COMPOSITIONS” (priority 2005, published 2009).

The test system of data set [1] is VEGF-stimulated endothelial cell proliferation (HUVEC). Put plainly: HUVEC assay, VEGF-stimulated proliferation. The class given is cell-based. As to conditions: Homo sapiens.
The test system of data set [2] is basal endothelial cell proliferation (HUVEC). Put plainly: HUVEC assay, basal proliferation. As to conditions: Homo sapiens. The class given is cell-based.
The subject of a further data set is Calu-6 tumour xenograft. Put plainly: in vivo solid tumour model. As to conditions: once-daily oral, 28 days.
The nature of data set [3]: stability of AZD2171 (hydrolysis, oxidation). The data set is classed as physicochemical. The text has this: In order to counteract the plasticity of a drug such as AZD2171 a person skilled in the art would typically try to modify the material's properties with the addition of a complementary excipient such as a brittle filler. However this can limit the drug loading that can be achieved in a formulation, i.e. the percentage of active ingredient therein, and can lead to very large tablets which are difficult to swallow. […] Initial test formulations of AZD2171 were therefore limited to the use of two […] fillers namely lactose and mannitol. The test formulations comprised: […]

A further data set has as its system range of models. The note with it: once-daily oral administration; cited from earlier work.

As to `COc1cc2c(Oc3ccc4[nH]c(C)cc4c3F)ncnc2cc1OCCCN1CCCC1` [AZD2171, 4-(4-fluoro-2-methyl-1H-indol-5-yloxy)-6-methoxy-7-(3-(pyrrolidin-1-yl)propoxy)quinazoline], the values for the IC50 in data set [1] and in data set [2] were 0.4 ± 0.2 nM and more than 500 nM, respectively. The results for the “inhibition of growth of Calu-6 tumour xenograft” value with Calu-6 tumour xenograft (1.5 mg/kg/day), with Calu-6 tumour xenograft (3 mg/kg/day) and in the data set with Calu-6 tumour xenograft (6 mg/kg/day) were 49%, 69% and 91%, respectively. Moreover, in data set [3], the “compatibility with brittle filler dibasic calcium phosphate dihydrate” value was “showed hydrolysis”. Also, the stability entry in data set [3] (degradation by hydrolysis and oxidation) is “relatively poor stability”. Moreover, the “anti-tumour activity in a range of models” value with range of models is “broad-spectrum anti-tumour activity”.
